The source of these data is patent publication US20230061736A1, “GPR119 AGONISTS” (Kallyope, Inc., priority 2019, published 2023).

Structures are written as SMILES. Bounds are passed on as bounds.

For this test, the target named is T1, human GPR119 (hGPR119) (Homo sapiens, UniProt Q8TDV5).
T1 construct: expressed in transfected cells
T1 sequence (Q8TDV5 1-335): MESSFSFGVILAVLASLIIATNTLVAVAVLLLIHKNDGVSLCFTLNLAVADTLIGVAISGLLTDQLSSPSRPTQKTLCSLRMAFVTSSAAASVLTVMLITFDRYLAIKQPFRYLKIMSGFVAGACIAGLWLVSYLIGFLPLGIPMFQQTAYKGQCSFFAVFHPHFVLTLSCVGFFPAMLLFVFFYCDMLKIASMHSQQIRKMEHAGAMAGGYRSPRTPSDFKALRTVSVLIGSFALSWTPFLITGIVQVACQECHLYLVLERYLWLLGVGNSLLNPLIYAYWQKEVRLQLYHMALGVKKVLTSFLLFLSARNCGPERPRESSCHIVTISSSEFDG
The test can be described thus: cAMP accumulation assay (cAMP Gs dynamic HTRF kit). To be noted: CHO-K1 cells stably expressing hGPR119, 4-parameter fit; for Emax: 1 h, % activity normalized to Max/Min controls; for EC50: cAMP accumulation. It counts as cell-based. Put shortly: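 Read-out is HTRF 665/620 nm ratio after 1 h detection at ambient temperature, converted to % activity against positive and negative controls, EC50 and Max activity by 4-parameter fit. Compounds were titrated onto ~10,000 thawed hGPR119-CHO-K1 cells/well for 60 min at 37° C/5% CO2.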
Background: cAMP levels reflect the balance of adenylyl cyclase and phosphodiesterase activity.

One may read the Emax as the maximal effect, on the per cent scale that the assay sets. What is called EC50 is the concentration giving half of the maximal effect. Read a low EC50 as higher potency in that assay. `O=C(Cc1ccc(OCCC2CC23CCN(c2ncc(Cl)cn2)CC3)cc1F)N1CC(CNC[C@H](O)[C@@H](O)[C@H](O)[C@H](O)CO)C1` (stereo partly drawn) [Example 110, 2-[4-[2-[6-(5-chloropyrimidin-2-yl)-6-azaspiro[2.5]octan-2-yl]ethoxy]-2-fluoro-phenyl]-1-[3-[[[(2S,3R,4R,5R)-2,3,4,5,6-pentahydroxyhexyl]amino]methyl]azetidin-1-yl]ethanone] displayed a maximal response (Emax) of 100 to 130% and an EC50 of 100 to 1000 nM.

`O=C(Cc1ccc(COCC2CC23CCN(c2ncc(Cl)cn2)CC3)cc1F)N1CC(CNC[C@H](O)[C@@H](O)[C@H](O)[C@H](O)CO)C1` (stereo partly drawn) [Example 111, 2-[4-[[6-(5-chloropyrimidin-2-yl)-6-azaspiro[2.5]octan-2-yl]methoxymethyl]-2-fluoro-phenyl]-1-[3-[[[(2S,3R,4R,5R)-2,3,4,5,6-pentahydroxyhexyl]amino]methyl]azetidin-1-yl]ethanone] registered a maximal effect (Emax) of 50 to 100% and a concentration for a half-maximal effect (EC50) of 1000 to 10000 nM.

Turning to `CC(C)OC(=O)N1CCC(CCCOc2ccc(CC(=O)N3CC(CNC[C@H](O)[C@@H](O)[C@H](O)[C@H](O)CO)C3)c(F)c2)CC1` [Example 112, isopropyl 4-[3-[3-fluoro-4-[2-oxo-2-[3-[[[(2S,3R,4R,5R)-2,3,4,5,6-pentahydroxyhexyl]amino]methyl]azetidin-1-yl]ethyl]phenoxy]propyl] piperidine-1-carboxylate], the maximal effect (Emax) lay in the range of 100 to 130% and the EC50 lay within 100 to 1000 nM.

Take `O=C(Cc1ccc(OCCC[C@@H]2[C@H]3CN(c4ncc(Cl)cn4)C[C@@H]23)cc1F)N1CC(CNC[C@H](O)[C@@H](O)[C@H](O)[C@H](O)CO)C1` [Example 113, 2-[4-[3-[(1R,5S)-3-(5-chloropyrimidin-2-yl)-3-azabicyclo[3.1.0]hexan-6-yl]propoxy]-2-fluoro-phenyl]-1-[3-[[[(2S,3R,4R,5R)-2,3,4,5,6-pentahydroxyhexyl]amino]methyl]azetidin-1-yl]ethanone]: the Emax fell in the range of 100 to 130% and the EC50 was in the range of 100 to 1000 nM.

As for `CCOc1cnc(N2CCC(CCCOc3cc(F)c(CC(=O)N4CC(CNC[C@H](O)[C@@H](O)[C@H](O)[C@H](O)CO)C4)c(F)c3)CC2)nc1` [Example 114, 2-[4-[3-[1-(5-ethoxypyrimidin-2-yl)-4-piperidyl]propoxy]-2,6-difluoro-phenyl]-1-[3-[[[(2S,3R,4R,5R)-2,3,4,5,6-pentahydroxyhexyl]amino]methyl]azetidin-1-yl]ethanone], the Emax was 100 to 130% and the concentration giving a half-maximal response (EC50) is not above 100 nM.

In turn, `O=C(Cc1c(F)cc(OCCC2CC3(CCN(c4ncc(Cl)cn4)CC3)C2)cc1F)N1CC(CNC[C@H](O)[C@@H](O)[C@H](O)[C@H](O)CO)C1` [Example 115, 2-[4-[2-[7-(5-chloropyrimidin-2-yl)-7-azaspiro[3.5]nonan-2-yl]ethoxy]-2,6-difluoro-phenyl]-1-[3-[[[(2S,3R,4R,5R)-2,3,4,5,6-pentahydroxyhexyl]amino]methyl]azetidin-1-yl]ethanone] returned an Emax of 100 to 130% and an EC50 of 100 to 1000 nM.

In turn, `O=C(Cc1c(F)cc(OCCCC2CC3(CCN(c4ncc(Cl)cn4)CC3)C2)cc1F)N1CC(CNC[C@H](O)[C@@H](O)[C@H](O)[C@H](O)CO)C1` [Example 116, 2-[4-[3-[7-(5-chloropyrimidin-2-yl)-7-azaspiro[3.5]nonan-2-yl]propoxy]-2,6-difluoro-phenyl]-1-[3-[[[(2S,3R,4R,5R)-2,3,4,5,6-pentahydroxyhexyl]amino]methyl]azetidin-1-yl]ethanone] yielded a maximum response (Emax) not below 130% and a concentration giving a half-maximal response (EC50) not above 100 nM.

The compound `CC(C)OC(=O)N1CCC2(CC1)CC(CCCOc1ccc(CC(=O)N3CC(CNC[C@H](O)[C@@H](O)[C@H](O)[C@H](O)CO)C3)c(F)c1)C2` [Example 117, isopropyl 2-[3-[3-fluoro-4-[2-oxo-2-[3-[[[(2S,3R,4R,5R)-2,3,4,5,6-pentahydroxyhexyl]amino]methyl]azetidin-1-yl]ethyl]phenoxy]propyl]-7-azaspiro[3.5]nonane-7-carboxylate] yielded an Emax of 100 to 130% and an EC50 of 100 to 1000 nM.

For the compound `CC(C)OC(=O)N1CCC2(CC1)CC(CCOc1ccc(CC(=O)N3CC(CNC[C@H](O)[C@@H](O)[C@H](O)[C@H](O)CO)C3)c(F)c1)C2` [Example 118, isopropyl 2-[2-[3-fluoro-4-[2-oxo-2-[3-[[[(2S,3R,4R,5R)-2,3,4,5,6-pentahydroxyhexyl]amino]methyl]azetidin-1-yl]ethyl]phenoxy]ethyl]-7-azaspiro[3.5]nonane-7-carboxylate], the maximal response (Emax) was 100 to 130% and the EC50 lay in the range of 100 to 1000 nM.

`O=C(Cc1ccc(OCC2CC(C3CCN(c4ncc(Cl)cn4)CC3)C2)cc1F)N1CC(CNC[C@H](O)[C@@H](O)[C@H](O)[C@H](O)CO)C1` (stereo partly drawn) [Example 120, 2-[4-[ [3-[1-(5-chloropyrimidin-2-yl)-4-piperidyl]cyclobutyl]methoxy]-2-fluoro-phenyl]-1-[3-[[[(2S,3R,4R,5R)-2,3,4,5,6-pentahydroxyhexyl]amino]methyl]azetidin-1-yl]ethanone] gave a maximal effect (Emax) of 100 to 130% and an EC50 not above 100 nM.

Turning to `COCC1(CNC[C@H](O)[C@@H](O)[C@H](O)[C@H](O)CO)CCN(C(=O)Cc2ccc(OCCCC3CCN(c4ncc(Cl)cn4)CC3)cc2F)C1` (stereo partly drawn) [Example 121, 2-[4-[3-[1-(5-chloropyrimidin-2-yl)-4-piperidyl]propoxy]-2-fluoro-phenyl]-1-[3-(methoxymethyl)-3-[[[r(2S,3R,4R,5R)-2,3,4,5,6-pentahydroxyhexyl]amino]methyl]pyrrolidin-1-yl]ethanone], the maximum response (Emax) was 100 to 130% and the EC50 was not above 100 nM.

With `COCC1(CNCC(CO)(CO)CO)CCN(C(=O)Cc2ccc(OCCCC3CCN(c4ncc(Cl)cn4)CC3)cc2F)C1` (stereo not shown) [Example 122, 2-[4-[3-[1-(5-chloropyrimidin-2-yl)-4-piperidyl]propoxy]-2-fluoro-phenyl]-1-[3-[[[3-hydroxy-2,2-bis(hydroxymethyl)propyl]amino]methyl]-3-(methoxymethyl)pyrrolidin-1-yl]ethanone], the Emax was 100 to 130% and the concentration for a half-maximal effect (EC50) was not above 100 nM.

With `O=C(Cc1ccc(OCCC2CC(C3CCN(c4ncc(Cl)cn4)CC3)C2)cc1F)N1CC(CNC[C@H](O)[C@@H](O)[C@H](O)[C@H](O)CO)C1` (stereo partly drawn) [Example 123, 2-[4-[2-[3-[1-(5-chloropyrimidin-2-yl)-4-piperidyl]cyclobutyl]ethoxy]-2-fluoro-phenyl]-1-[3-[[[(2S,3R,4R,5R)-2,3,4,5,6-pentahydroxyhexyl]amino]methyl]azetidin-1-yl]ethanone], the maximal response (Emax) fell in the range of 100 to 130% and the concentration for a half-maximal effect (EC50) lay in the range of 100 to 1000 nM.

As for `O=C(Cc1c(F)cc(OCCC2CC(C3CCN(c4ncc(Cl)cn4)CC3)C2)cc1F)N1CC(CNC[C@H](O)[C@@H](O)[C@H](O)[C@H](O)CO)C1` (stereo partly drawn) [Example 124, 2-[4-[2-[3-[1-(5-chloropyrimidin-2-yl)-4-piperidyl]cyclobutyl]ethoxy]-2,6-difluoro-phenyl]-1-[3-[[[(2S,3R,4R,5R)-2,3,4,5,6-pentahydroxyhexyl]amino]methyl]azetidin-1-yl]ethanone], the Emax was 100 to 130% and the 50% effective concentration (EC50) was not above 100 nM.
